Measured values: article PMC4621751 (The Journal of General Physiology, 2015)

Legend:
[1] = molecular target: T1, human Elk1 (HsElk1, Kv12.1, KCNH8) (Homo sapiens, UniProt Q96L42); assay: inside-out patch clamp, Hill fit of activation time constant; assay type: cell-based
T1 sequence (Q96L42 1-1107): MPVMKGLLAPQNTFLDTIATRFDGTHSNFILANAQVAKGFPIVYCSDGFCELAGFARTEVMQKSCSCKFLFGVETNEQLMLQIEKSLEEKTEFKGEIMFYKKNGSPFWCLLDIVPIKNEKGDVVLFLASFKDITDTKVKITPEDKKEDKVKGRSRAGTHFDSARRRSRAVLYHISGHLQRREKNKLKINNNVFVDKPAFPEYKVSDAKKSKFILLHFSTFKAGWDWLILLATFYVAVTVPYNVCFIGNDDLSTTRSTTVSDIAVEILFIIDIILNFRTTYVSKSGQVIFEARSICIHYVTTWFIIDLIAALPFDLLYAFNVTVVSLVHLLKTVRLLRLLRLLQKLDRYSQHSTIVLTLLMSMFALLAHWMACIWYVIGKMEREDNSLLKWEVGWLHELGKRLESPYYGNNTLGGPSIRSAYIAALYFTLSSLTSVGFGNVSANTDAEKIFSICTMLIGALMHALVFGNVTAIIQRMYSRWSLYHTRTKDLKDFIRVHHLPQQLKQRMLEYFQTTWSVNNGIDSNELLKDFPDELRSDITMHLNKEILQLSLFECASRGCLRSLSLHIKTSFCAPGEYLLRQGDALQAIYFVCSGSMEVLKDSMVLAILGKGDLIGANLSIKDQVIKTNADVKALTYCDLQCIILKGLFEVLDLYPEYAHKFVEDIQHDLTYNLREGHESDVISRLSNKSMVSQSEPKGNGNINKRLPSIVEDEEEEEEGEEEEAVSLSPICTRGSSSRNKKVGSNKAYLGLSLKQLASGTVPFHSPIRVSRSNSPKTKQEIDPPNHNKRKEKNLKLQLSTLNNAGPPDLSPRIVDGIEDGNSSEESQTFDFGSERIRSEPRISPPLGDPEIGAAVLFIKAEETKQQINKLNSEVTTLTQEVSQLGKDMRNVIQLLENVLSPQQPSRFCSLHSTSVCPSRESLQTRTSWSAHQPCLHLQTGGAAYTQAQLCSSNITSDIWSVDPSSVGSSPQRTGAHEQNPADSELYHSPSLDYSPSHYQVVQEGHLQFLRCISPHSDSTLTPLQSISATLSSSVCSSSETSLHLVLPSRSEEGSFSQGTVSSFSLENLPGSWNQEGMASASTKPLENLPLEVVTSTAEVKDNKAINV

[2] = molecular target: T1, human Elk1 (HsElk1, Kv12.1, KCNH8); assay: inside-out patch clamp, activation time constant; assay type: biochemical; conditions: -20 mV, intracellular application, excised patch, pH 7.2

Compound	EC50 [1] [µM]	fold change of τact at 10 μM [2]
CCCCCCCC(=O)OC[C@H](COP(=O)(O)O[C@@H]1[C@H](O)[C@H](O)[C@@H](OP(=O)(O)O)[C@H](OP(=O)(O)O)[C@H]1O)OC(=O)CCCCCCC [diC8-PIP2]	12.7 ± 2.2	–
CCCCCCCC(=O)OC[C@H](COP(=O)(O)O[C@H]1[C@H](O)[C@@H](OP(=O)(O)O)[C@H](OP(=O)(O)O)[C@@H](OP(=O)(O)O)[C@H]1O)OC(=O)CCCCCCC [diC8-PIP3]	–	PIP3 slowed activation significantly more than PIP2
